Among the data in patent US8148385B2, “Substituted [1,2,3] triazolo[4,5-d]pyrimidine derivatives as ADP P2Y12 receptor antagonists” (Janssen Pharmaceutica N.V., priority 2006, dated 2012) are IC50 values, retold here.

One test deals with T1, ADP P2Y12 (Homo sapiens, UniProt Q9H244).
T1 construct: expressed in transfected cells
The test is described as follows: FLIPR calcium assay transducing Gi-coupled signaling to the Gq pathway (inhibition of calcium mobilization). The settings on record: HEK 293 cells co-transfected with P2Y12 and Gqi5, ADP at EC60-70 dose. It counts as cell-based. The text has this:
A FLIPR Calcium Assay Transducing Gi-Coupled Signaling to the Gq Pathway
The ADP P2Y12 subtype is a Gi coupled GPCR, which mediates inhibition of adenylate cyclase leading to decreased cAMP while Gq proteins primarily activate phospholipase C, which stimulates inositol-1,4,5-triphosphate (IP3) formation and a subsequent increase in intracellular Ca^2+ concentration, which can be easily measured by FLIPR. Prior to the development of a method to convert a Gi coupled GPCR signaling to a Gq coupled GPCR signaling, a significant barrier existed for the functional testing and screening of Gi coupled GPCRs. One popular method, GTPγS migration, is slow, produces a small signal and generates radioactive waste. The discovery that a small switch in the amino acid sequence in the Gi protein could convert it to a protein mediating a Gq coupled response has led to the development of robust, high throughput assays for this valuable receptor subtype.
The FLIPR-based HTS assay transducing the Gi signaling to the Gq pathway is described below.
pcDNA3hygroP2Y12 containing a hygromycin resistance gene and pLEC1-Gqi5-HA containing a neomycin resistance gene (licensed from Molecular Devices, Sunnyvale, Calif.) were co-transfected into Human embryonic kidney (HEK) 293 cells with SuperFect (Qiagen, Valencia, Calif.). Cell clones were selected in the presence of 600 μg/ml hygromycin B (Life Technologies, Carlsbad, Calif.) and 1 mg/ml of G418 (Mediatech, Herndon, Va.). Drug resistant colonies were picked and screened by FLIPR and the gene expression was further confirmed by RT-PCR. Positive clones were maintained in growth medium (DMEM supplemented with 10% FBS, 1×p/s) containing 400 μg/ml of G418 and 200 μg/ml of hygromycin.
The day before the assay, cells are seeded in clear, flat-bottom black-wall, tissue culture treated polystyrene 96- or 384-well plates and incubated at 37° C., 5% CO2. 50 μl of complete dye loading solution (FLIPR Calcium Assay Kit, Molecular Devices) was added to each well containing 100 μl of culture media. The cells were incubated for at least 30 min at 37° C., in 5% CO2 before initiating the assay on the FLIPR. The agonist effect of ADP was tested and EC50 was determined prior to compound testing. The EC60-70 dose was used.
The antagonist compounds were prepared at 4× and the agonists were diluted at 5× the concentration desired in the test wells, and then aliquoted into the sample plates. The sample plates and the cell plate were placed in the FLIPR assay chamber. A first addition (50 μl) was made at the start of reading and a second addition (50 μl) was made after 5 min of reading. Raw fluorescence data was exported for each well and tabulated versus time within an ASCII file. Data was then imported into Excel and the peak response over the basal level was determined. The percent inhibition for each compound was calculated by the change in fluorescent density as a % inhibition of the control ADP response to obtain an IC50, as shown in Table 1 (wherein N/A means Not Applicable).

For a further test, the target named is T2, P2Y12 receptor (Homo sapiens, UniProt Q9H244).
T2 construct: expressed in transfected cells
T2 sequence (Q9H244 whole entry): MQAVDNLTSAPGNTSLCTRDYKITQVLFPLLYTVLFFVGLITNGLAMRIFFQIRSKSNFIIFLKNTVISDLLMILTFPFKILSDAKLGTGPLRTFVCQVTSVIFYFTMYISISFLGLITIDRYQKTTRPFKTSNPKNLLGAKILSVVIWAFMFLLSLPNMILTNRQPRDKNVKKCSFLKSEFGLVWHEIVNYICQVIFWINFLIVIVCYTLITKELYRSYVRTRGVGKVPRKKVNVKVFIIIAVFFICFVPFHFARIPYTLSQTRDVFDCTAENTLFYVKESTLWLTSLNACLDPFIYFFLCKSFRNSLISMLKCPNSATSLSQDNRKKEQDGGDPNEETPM
The test is described as follows: Whole cell receptor binding assay for 2-MeS[3H]-ADP. Particulars: whole HEK 293 cells transfected with P2Y12; 2-MeS[3H]-ADP 3 nM; 30 min at 37° C.; read-out: Inhibition of Receptor Binding IC50. On the procedure:
A whole cell-binding assay for 2-MeS [^3H]-ADP (Custom synthesized by Amersham BioScience, Piscataway, N.J.) to the P2Y12 receptor was performed.
A P2Y12 cDNA containing hygromycin resistant gene was transfected in HEK 293 cells. A stable cell line was obtained by a cloning selection method. The cells were cultured in DMEM supplemented with 10% FBS and 1× of p/s.
On the day of the assay, the cells were harvested and resuspended in 0.25% BSA-DMEM and adjusted to a cell concentration of 1.6×10^6/ml. […] The reaction was then incubated for 30 min at 37° C. and stopped by adding cold DMEM. […] The plates were dyed in a 37° C. oven for 1-2 hours and 50 μl of MicroScint-20 (PerkinElmer) was added to each well. The radioactivity was measured using a TOPCOUNT beta counter (Packard).

A value given as a limit tells only on which side of the number the result lay.

T1 sequence (Q9H244 whole entry): as above

As to `CCCSc1nc(NCc2cccn2C)c2nnn([C@@H]3C=C[C@H](O)[C@@H](O)[C@H]3O)c2n1` [Cpd 8, (1S,2R,3S,6R)-6-{7-[(1-methyl-1H-pyrrol-2-ylmethyl)-amino]-5-propylsulfanyl-[1,2,3]triazolo[4,5-d]pyrimidin-3-yl}-cyclohex-4-ene-1,2,3-triol], the IC50 on ADP P2Y12 was greater than 30 µM. On the same count and under the same terms, in the case of `CCCSc1nc(NCc2ccco2)c2nnn([C@@H]3CC[C@H](O)[C@@H](O)[C@H]3O)c2n1` [Cpd 18, (1S,2R,3S,4R)-4-{7-[(furan-2-ylmethyl)-amino]-5-propylsulfanyl-[1,2,3]triazolo[4,5-d]pyrimidin-3-yl}-cyclohexane-1,2,3-triol] it was greater than 30 µM.

On to `CCCSc1nc(NC[C@@H]2CCCO2)c2nnn([C@@H]3C=C[C@H](O)[C@@H](O)[C@H]3O)c2n1` [Cpd 3, (1S,2R,3S,6R)-6-(5-propylsulfanyl-7-{[(2S)-tetrahydro-furan-2-ylmethyl]-amino}-[1,2,3]triazolo[4,5-d]pyrimidin-3-yl)-cyclohex-4-ene-1,2,3-triol], for which the IC50 at P2Y12 receptor was 4.75 µM; on ADP P2Y12, greater than 30 µM. `CCCSc1nc(NCCc2cccs2)c2nnn([C@@H]3CC[C@H](O)[C@@H](O)[C@H]3O)c2n1` [Cpd 20, (1S,2R,3S,4R)-4-[5-propylsulfanyl-7-(2-thiophen-2-yl-ethylamino)-[1,2,3]triazolo[4,5-d]pyrimidin-3-yl]-cyclohexane-1,2,3-triol]: on ADP P2Y12, the IC50 was greater than 30 µM. Still for that read-out and setting: in the case of `CCCCNc1nc(SCCC)nc2c1nnn2[C@@H]1CC[C@H](O)[C@@H](O)[C@H]1O` [Cpd 19, (1S,2R,3S,4R)-4-(7-butylamino-5-propylsulfanyl-[1,2,3]triazolo[4,5-d]pyrimidin-3-yl)-cyclohexane-1,2,3-triol] it was 2.93 µM. `CCCSc1nc(NCCc2cccs2)c2nnn([C@@H]3C=C[C@H](O)[C@@H](O)[C@H]3O)c2n1` [Cpd 7, (1S,2R,3S,4R)-6-[5-propylsulfanyl-7-(2-thiophen-2-yl-ethylamino)-[1,2,3]triazolo[4,5-d]pyrimidin-3-yl]-cyclohex-4-ene-1,2,3-triol]: the IC50 on P2Y12 receptor is 2.27 µM; at ADP P2Y12, 14.7 µM. Taken in the same sequence, the figures for `CCCSc1nc(N[C@@H]2C[C@H]2c2ccccc2)c2nnn([C@@H]3CC[C@H](OCCO)[C@@H](O)[C@H]3O)c2n1` (mixture of isomers) [Cpd 15, (1S,2S,3S,6R)-3-(2-hydroxy-ethoxy)-6-{7-[(1RS,2SR)-2-phenyl-cyclopropylamino]-5-propylsulfanyl-[1,2,3]triazolo[4,5-d]pyrimidin-3-yl}-cyclohexane-1,2-diol] were 6.6 µM and 2.63 µM.

With `CCCSc1nc(N[C@@H]2C[C@H]2c2ccccc2)c2nnn([C@@H]3C=C[C@H](OCCO)[C@@H](O)[C@H]3O)c2n1` (mixture of isomers) [Cpd 13, (1S,2S,3S,6R)-3-(2-hydroxy-ethoxy)-6-{7-[(1RS,2SR)-2-phenyl-cyclopropylamino]-5-propylsulfanyl-[1,2,3]triazolo[4,5-d]pyrimidin-3-yl}-cyclohex-4-ene-1,2-diol], the IC50 at P2Y12 receptor was 8.56 µM; on ADP P2Y12 it was greater than 30 µM. The corresponding values for `CCCSc1nc(N[C@@H]2C[C@H]2c2ccccc2)c2nnn(C3[C@@H](O)[C@@H](O)C(OCCO)[C@@H](O)[C@H]3O)c2n1` (mixture of isomers) [Cpd 12, (1R,2R,4S,5S)-3-(2-hydroxy-ethoxy)-6-{7-[(1RS,2SR)-2-phenyl-cyclopropylamino]-5-propylsulfanyl-[1,2,3]triazolo[4,5-d]pyrimidin-3-yl}-cyclohexane-1,2,4,5-tetraol] are 2.2 µM and 6.9 µM. For the molecule `CCCSc1nc(NCC2CCCN2CC)c2nnn([C@@H]3C=C[C@H](O)[C@@H](O)[C@H]3O)c2n1` (stereo partly drawn) [Cpd 6, (1S,2R,3S,4R)-6-{7-[(1-ethyl-pyrrolidin-2-ylmethyl)-amino]-5-propylsulfanyl-[1,2,3]triazolo[4,5-d]pyrimidin-3-yl}-cyclohex-4-ene-1,2,3-triol], at ADP P2Y12, the IC50 is greater than 30 µM.

Consider `CCCSc1nc(N[C@@H]2CCN(Cc3ccccc3)C2)c2nnn([C@@H]3CC[C@H](O)[C@@H](O)[C@H]3O)c2n1` [Cpd 22, (1S,2R,3S,4R)-4-{7-[(3R)-1-benzyl-pyrrolidin-3-ylamino]-5-propylsulfanyl-[1,2,3]triazolo[4,5-d]pyrimidin-3-yl}-cyclohexane-1,2,3-triol], for which the IC50 on ADP P2Y12 was greater than 30 µM.

As for `CCCSc1nc(NC[C@H]2CCCO2)c2nnn([C@@H]3C=C[C@H](O)[C@@H](O)[C@H]3O)c2n1` [Cpd 2, (1S,2R,3S,6R)-6-(5-propylsulfanyl-7-{[(2R)-tetrahydro-furan-2-ylmethyl]-amino}-[1,2,3]triazolo[4,5-d]pyrimidin-3-yl)-cyclohex-4-ene-1,2,3-triol], the IC50 at ADP P2Y12 is greater than 30 µM. On the same count and under the same terms, next, `CCCSc1nc(NC[C@@H]2CCCO2)c2nnn([C@@H]3CC[C@H](O)[C@@H](O)[C@H]3O)c2n1` [Cpd 16, (1S,2R,3S,4R)-4-(5-propylsulfanyl-7-{[(2S)-tetrahydro-furan-2-ylmethyl]-amino}-[1,2,3]triazolo[4,5-d]pyrimidin-3-yl)-cyclohexane-1,2,3-triol]: greater than 30 µM; `CCCSc1nc(N[C@@H]2C[C@H]2c2ccccc2)c2nnn([C@@H]3C=C[C@H](O)[C@H]4OC(C)(C)O[C@H]43)c2n1` (mixture of isomers) [Cpd 10, (3aR,4S,7R,7aS)-2,2-dimethyl-7-{7-[(1RS,2SR)-2-phenyl-cyclopropylamino]-5-propylsulfanyl-[1,2,3]triazolo[4,5-d]pyrimidin-3-yl}-3a,4,7,7a-tetrahydro-benzo[1,3]dioxol-4-ol]: greater than 30 µM; `CCCSc1nc(NCc2ccco2)c2nnn([C@@H]3C=C[C@H](O)[C@@H](O)[C@H]3O)c2n1` [Cpd 4, (1S,2R,3S,4R)-6-{7-[(furan-2-ylmethyl)-amino]-5-propylsulfanyl-[1,2,3]triazolo[4,5-d]pyrimidin-3-yl}-cyclohex-4-ene-1,2,3-triol]: greater than 30 µM.

One may read the IC50 as the concentration that gives 50% inhibition.
